Experimental data taken from patent US7101980B2, “Derivatives, conjugates, and antibodies for detecting ecstasy-class analytes” (Roche Diagnostics Operations, Inc., priority 2002, dated 2006).

Columns and labels:
Format in all cases: binding, mouse
antibody NEAMP 1.3 = assay: Cross-reactivity of NEAMP 1.3 with various drugs generated in an ELISA assay; details: antibody NEAMP 1.3 (immunogen 26, Q=KLH), MDEA as standard = 100
Experimental: Antibodies elicited by the immunogen 12, e.g., wherein T is KLH, show good response and specificity to ecstasy-class drugs. Furthermore, these antibodies show little or no cross-reactivity to related drugs. By determining the drug concentration that results in a 50% reduction in binding (ED50) of a standard, methamphetamine, dividing by the ED50 of each other drug, and then multiplying the result by 100, the percent cross-reactivity was calculated.
Tables 2, 3, and 4 show cross-reactivity data for the antibodies NEAMP 1.3, NEAMP 48.2, and NEAMP 62.1, which were generated in response to immunogen 26 of FIG. 2 wherein Q is KLH. By the procedure described above, using MDEA as a standard, the percent cross-reactivities shown in Tables 2, 3, and 4 were calculated.
Microplates were coated with 100 μL methamphetamine-BSA conjugate 28 (for screening for NEAMP 1.3) or 100 μL of MDEA-BSA conjugate 36 (for screening for NEAMP 48.2 and NEAMP 62.1), and separate microplates were coated with 100 μL N-ethylamphetamine-BSA 26 (Q=BSA, 26b) at 1 μg/mL in 0.1 M carbonate buffer, pH 9.5, for 1 hour at 37° C. (humidified). The plates were then emptied and filled with a post-coat solution containing Tris buffer, 1% gelatin hydrolysate, 2% sucrose, and 0.17% TWEEN 20. (All reagents were from Sigma Chemical Co.) The plates were incubated for an additional 1 hour at 37° C. (humidified), after which they were washed with phosphate-buffered saline containing 0.1% TWEEN 20. The plates were then filled with a 2% sucrose solution in 0.15 M Tris, pH 7.2–7.4, briefly, then emptied and allowed to air-dry at room temperature. When dried, the plates were packed in ZIPLOC bags containing several desiccant pillows, sealed, and stored at 4° C. until use.
When the growing clones were judged ready for testing, 25 μL of supernatant from the wells were taken and transferred to 96-well flexible plates. Culture medium was added to each well to provide a 1:10 dilution of the media sample. One hundred microliters of the diluted sample were transferred to each of the coated plates above. The plates were incubated covered for 1 hour at 37° C., then washed with PBS-TWEEN. The wells were then filled with 100 μL of goat anti-mouse IgG-HRP conjugate (Zymed Labs) diluted in PBS-TWEEN and the plates re-incubated for 1 hour. The plates were then washed again, and 100 μL of K Blue substrate (Neogen Corp) was added. This was allowed to develop for 5–15 minutes, the reaction being stopped by the addition of 100 μL of 1 N HCl. Color was read by means of a microplate reader at […] and collected by computer for analysis. A criterion for selection was binding to the methamphetamine-BSA conjugate 28 (for selection of NEAMP 1.3) or MDEA-BSA conjugate 36 (for screening for NEAMP 48.2 and NEAMP 62.1). Clones chosen were immediately subcloned and, when ready, retested. Stable subclones were expanded, frozen, and the spent media used to determine specificity using the cross-reactivity assay.
(§1) Supernatants were subjected to serial dilutions and re-tested in the ELISA screen above. The dilution providing for about a 50% reduction from the maximum OD was chosen for proceeding to cross-reactivity testing. This comprised repeating the preceding assay with the antibody at the chosen dilution and in the presence of varying concentrations of drugs.

antibody MDMA 2.1.1 = assay: Cross-reactivity of antibody MDMA 2.1.1 with various drugs (ELISA cross-reactivity assay); details: antibody MDMA 2.1.1 (elicited by immunogen 12, T=KLH); ED50 of standard / ED50 of drug x 100; MDMA = 100
Experimental: In Table 1, the abbreviation d-AMP represents d-amphetamine, the abbreviation d-MAMP represents d-methamphetamine, the abbreviation l-AMP represents l-amphetamine, the abbreviation l-MAMP represents l-methamphetamine, and the abbreviation MDPA represents 3,4-methylenedioxy-N-propylamphetamine.
Microplates were coated with […] methylenedioxymethamphetamine-BSA conjugate 12 (T=BSA, 12b) at a concentration of 1 mg/mL, and separate microplates were coated with either 100 μL methamphetamine-BSA (MAMP-BSA) 28 at a concentration of 1 mg/mL or with 100 μL of amphetamine-BSA (AMP-BSA) 30 at a concentration of 1 mg/mL.
The plates were incubated covered for 1 hour at 37° C. (humidified). The plates were then emptied and filled with a post-coat solution consisting of Tris buffer, 1% gelatin hydrolysate, 2% sucrose, and 0.17% TWEEN 20. (All reagents were from Sigma Chemical Co.) The plates were incubated covered for an additional 1 hour at 37° C. (humidified), after which they were washed with phosphate-buffered saline containing 0.1% TWEEN 20. The plates were then filled with a 2% sucrose solution in 0.15 M Tris, pH 7.2–7.4, briefly, then emptied and allowed to air dry at room temperature. When dried, the plates were packed in ZIPLOC (Dow Chemical Co.) plastic bags containing several desiccant pillows, sealed, and stored at 4° C. until use.
For the primary screening of the growing clones from the fusion plates, only the MDMA-BSA 12 (T=BSA, 12b) coated plates were used. Fifty microliters of PBS was added to each well, followed by 50 μL of the sample of culture media from wells on the fusion plate, diluted 1:10 in PBS. The plates were incubated covered for 1 hour at 37° C., then washed with PBS-TWEEN (0.1%). The wells were then filled with 100 μL of goat anti-mouse IgG-HRP conjugate (Zymed Labs), diluted in PBS-TWEEN, and the plates re-incubated for 1 hour. The plates were then washed again and 100 μL of K-Blue Substrate (Neogen Corp.) added. This was allowed to develop for 5–15 minutes, the reaction being stopped by the addition of 100 μL of 1 N HCl. Color was read by means of a microplate reader at 450 nm and collected by computer for analysis. […] Cells were subjected to limiting dilution subcloning, and upon appearance of growth, were tested by a secondary screen.
as §1

antibody NEAMP 48.2 = assay: Cross-reactivity of NEAMP 48.2 with various drugs generated in a KIMS assay (ONLINE DAT II); details: antibody NEAMP 48.2 (immunogen 26, Q=KLH); KIMS immunoassay; MDEA as standard = 100
antibody NEAMP 62.1 = assay: Cross-reactivity of NEAMP 62.1 with various drugs generated in a KIMS assay (ONLINE DAT II); details: antibody NEAMP 62.1 (immunogen 26, Q=KLH); KIMS immunoassay; MDEA as standard = 100

| Structure (SMILES) | % Cross-reactivity (antibody NEAMP 1.3) [%] | % Cross-reactivity (antibody MDMA 2.1.1) [%] | % Cross-reactivity (antibody NEAMP 48.2) [%] | % Cross-reactivity (antibody NEAMP 62.1) [%] |
| --- | --- | --- | --- | --- |
| C[C@@H](N)Cc1ccccc1 [l-AMP, l-amphetamine] | 6.6 | 0 | – | – |
| CCNC(C)Cc1ccccc1 (stereo not drawn) [d-N-ethylamphetamine] | – | – | 130 | 11 |
| CC(N)C(O)c1ccccc1 (centres unmarked) [phenylpropanolamine] | – | 0 | – | – |
| CCC(N)Cc1ccc2c(c1)OCO2 (centres unmarked) [BDB, 3,4-methylenedioxyphenyl-2-butanamine] | – | 20.5 | 1 | 46 |
| CNCC(O)c1ccc(O)c(O)c1 (centres unmarked) [adrenaline] | – | 0 | – | – |
| C[C@H]1[C@H](c2ccccc2)OCCN1C [phendimetrazine] | 0.12 | – | 0.04 | 0.1 |
| NCCc1ccc(O)cc1 [tyramine] | – | 0 | – | – |
| c1cc2c(cc1[C@H]1OC[C@H]3[C@@H]1CO[C@@H]3c1ccc3c(c1)OCO3)OCO2 [sesamin] | – | 0 | – | – |
| CN[C@@H](C)[C@@H](O)c1ccccc1 [d-pseudoephedrine] | 0.4 | – | 0.06 | 0.1 |
| CC(C)(N)Cc1ccccc1 [phentermine] | – | 0 | – | – |
| CN[C@@H](C)[C@H](O)c1ccccc1 [l-ephedrine] | 1.3 | – | 0 | 0.0 |
| C[C@H](N)Cc1ccccc1 [d-AMP, d-amphetamine] | 6.4 | 0 | 0 | – |
| CN[C@H](C)Cc1ccccc1 [l-MAMP, l-methamphetamine] | – | 0 | 0.5 | 0.2 |
| CN[C@@H](C)[C@H](O)c1ccccc1 [ephedrine] | – | 0 | – | – |
| CCCNC(C)Cc1ccc2c(c1)OCO2 (centres unmarked) [MDPA, 3,4-methylenedioxy-N-propylamphetamine] | – | 365 | – | – |
| CN[C@@H](C)Cc1ccccc1 [d-MAMP, d-methamphetamine] | 19.7 | 0.65 | – | 0.5 |
| CNC(C)Cc1ccc2c(c1)OCO2 (centres unmarked) [MDMA, 3,4-methylenedioxy-N-methylamphetamine] | 22.5 | 100 | 5 | 4.0 |
| CCNC(C)Cc1ccc2c(c1)OCO2 (centres unmarked) [MDEA, 3,4-methylenedioxy-N-ethylamphetamine] | 100 | 204 | 100 | 100 |
| CN[C@@H](C)[C@@H](O)c1ccccc1 [pseudoephedrine] | – | 0 | – | – |
| CC(N)Cc1ccc2c(c1)OCO2 (centres unmarked) [MDA, 3,4-methylenedioxyamphetamine] | – | 60.6 | – | – |
| NC[C@H](O)c1ccc(O)c(O)c1 [norepinephrine] | – | 0 | – | – |
| CCC(Cc1ccc2c(c1)OCO2)NC (centres unmarked) [MBDB, 3,4-methylenedioxyphenyl-N-methylbutanamine] | 3.9 | 26.1 | 6 | 13 |
